Assay results reported in US7375090B2, “Glucopyranosyloxy-pyrazoles, pharmaceutical compositions containing these compounds, the use thereof and processed for the preparation thereof” (Boehringer Ingelheim International GmbH, priority 2003, dated 2008).

Molecular target: T1, human sodium glucose cotransporter 2 (Homo sapiens, UniProt P31639)
T1 construct: expressed in transfected cells; host or cells: CHO-K1 (ATCC No. CCL 61) or HEK293 (ATCC No. CRL-1573), stably transfected with pZeoSV-hSGLT2
T1 sequence (P31639 1-672): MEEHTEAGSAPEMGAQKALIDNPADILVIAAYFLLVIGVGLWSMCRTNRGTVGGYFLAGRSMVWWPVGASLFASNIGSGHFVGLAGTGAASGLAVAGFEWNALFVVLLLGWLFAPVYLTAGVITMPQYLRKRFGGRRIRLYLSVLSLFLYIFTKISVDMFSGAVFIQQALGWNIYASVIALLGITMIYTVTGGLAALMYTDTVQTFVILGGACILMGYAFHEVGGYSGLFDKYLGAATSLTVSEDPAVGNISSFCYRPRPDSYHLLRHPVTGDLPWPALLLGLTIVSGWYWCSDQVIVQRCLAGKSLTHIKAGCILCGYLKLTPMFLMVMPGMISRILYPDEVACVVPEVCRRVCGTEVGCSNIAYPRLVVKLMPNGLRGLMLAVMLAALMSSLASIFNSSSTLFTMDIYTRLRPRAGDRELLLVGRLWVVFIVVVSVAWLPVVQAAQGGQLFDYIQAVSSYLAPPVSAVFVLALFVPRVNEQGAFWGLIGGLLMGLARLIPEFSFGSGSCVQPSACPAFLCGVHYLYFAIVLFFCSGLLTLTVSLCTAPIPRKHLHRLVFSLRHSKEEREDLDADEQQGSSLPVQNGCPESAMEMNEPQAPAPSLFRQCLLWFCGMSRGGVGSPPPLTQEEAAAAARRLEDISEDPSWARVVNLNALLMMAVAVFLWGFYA
Assay: SGLT-2 assay (14C-AMG uptake in CHO-hSGLT2 or HEK-hSGLT2 cells)
Format: cell-based
Conditions: inhibition of 14C-AMG uptake; CHO-K1 or HEK293 cells stably transfected with hSGLT2; 2 hours' incubation at 37° C.
Procedure: These cell lines transport ^14C-labelled alpha-methyl-glucopyranoside (14C-AMG, Amersham) into the interior of the cell in sodium-dependent manner.
The SGLT-2 assay is carried out as follows:
CHO-hSGLT2 cells are cultivated in Ham's F12 Medium (BioWhittaker) with 10% foetal calf serum and 250 μg/ml zeocin (Invitrogen), and HEK293-hSGLT2 cells are cultivated in DMEM medium with 10% foetal calf serum and 250 μg/ml zeocin (Invitrogen).
The cells are detached from the culture flasks by washing twice with PBS and subsequently treating with trypsin/EDTA. After the addition of cell culture medium the cells are centrifuged, resuspended in culture medium and counted in a Casy cell counter. Then 40,000 cells per well are seeded into a white, 96-well plate coated with poly-D-lysine and incubated overnight at 37° C., 5% CO2. The cells are washed twice with 250 μl of assay buffer (Hanks Balanced Salt Solution, 137 mM NaCl, 5.4 mM KCl, 2.8 mM CaCl2, 1.2 mM MgSO4 and 10 mM HEPES (pH7.4), 50 μg/ml of gentamycin). Two hundred-fifty microliters of assay buffer and 5 μl of test compound are then added to each well and the plate is incubated for a further 15 minutes in the incubator. Five microliters of 10% DMSO are used as the negative control. […] After this incubation the radioactivity of the ^14C-AMG absorbed is measured in a Topcount (Packard) using a ^14C scintillation program.

CCc1ccc(Cc2c(O[C@@H]3O[C@H](CO)[C@@H](O)[C@H](O)[C@H]3O)nn(C3CCOCC3)c2C)cc1 [compound (4) of Example 3, 1-(tetrahydropyran-4-yl)-3-(β-D-glucopyranosyloxy)-4-(4-ethylbenzyl)-5-methyl-1H-pyrazole]
EC50: ~5 nM
